Results: article PMC5750218, “Protein-inspired antibiotics active against vancomycin- and daptomycin-resistant bacteria” (Nature Communications, 2018)
Converted amounts (≈) assume the structure as drawn. Like-named read-outs stand apart in the source and are kept apart here.

Key:
[1] = system: S. pneumoniae ATCC 700677 MDR; experiment: microbe, parasite or virus in culture; format: cell-based, Streptococcus pneumoniae; settings: for MIC: Streptococcus pneumoniae, ATCC700677, 24 h
Summary of the method: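 Twofold broth microdilution in Mueller Hinton broth used compounds from 8 to 0.003 µg mL^−1. Mid-log cultures were added at 5 × 10^5 CFU mL^−1 and incubated for 24 h at 37 °C. MIC was the lowest concentration with no visible growth.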

[2] = system: S. aureus ATCC 43300; experiment: Membrane depolarisation assay (diSC3(5)); format: cell-based, Staphylococcus aureus; settings: 16 µg mL^−1, 30 min, MRSA ATCC 43300
Procedure: Antibiotic-induced bacterial cytoplasmic membrane depolarisation was determined using the fluorescent dye 3,3-dipropylthiacarbocyanine diSC3(5) (Sigma Aldrich, Australia) as previously described. Briefly, early exponential phase cells were pelleted and washed twice in 10 mM HEPES buffer (pH 7.4) containing 50 µg mL^−1 of CaCl2 and 5 mM Glucose, and then re-suspended in the same buffer (2 × 10^8 CFU mL^−1). diSC3(5) was added to a final concentration of 1.5 µM and incubated at room temperature in the dark to enable dye uptake and fluorescence quenching. After 30 min, cells were diluted 50-fold in assay buffer and 45 µL of cells were added to a 384-well black walled polystyrene plate (Corning, CLS3573) (Note: NBS plates were not employed, and no polysorbate-80 was added to avoid potential effects on membrane permeability, or interference with fluorescence as previously reported. The MICs of compounds in polystyrene plates are listed in Supplementary Table 12). Background data was collected before adding compounds using a Tecan Infinite® m1000 Pro Multi-mode reader (excitation/emission 612/665 nm) to ensure fluorescence quenching. Compounds were added to a final concentration of 16 µg mL^−1 and fluorescence was monitored for 30 min. Data were corrected by subtraction of background response (diSC3(5) in the presence of untreated cells, no compound). […] Each sample was tested in quadruplicate and independent assays were performed twice showing similar results. Data were analysed and presented using Prism software.

[3] = for half-life / microsomal CLint: liver microsomes; for Microsome-Predicted EH: hepatic extraction ratio
Procedure: Performed by CDCO, Monash University, Australia.
The metabolic stability assay was performed by incubating each test compound (1 μM) with human (Xenotech, Lot #1210057) and mouse (Xenotech, Lot #1110071) liver microsomes at 37 °C and 0.4 mg mL^−1 protein concentration. The metabolic reaction was initiated by the addition of a nicotinamide adenine dinucleotide phosphate (NADPH)-regenerating system (i.e. NADPH is the cofactor required for cytochrome P450-mediated metabolism) and quenched at various time points over the 60 min incubation period by the addition of acetonitrile. Control samples (containing no NADPH) were included (and quenched at 2, 30 and 60 min) to monitor for potential degradation in the absence of cofactors. Concentrations of each test compound in quenched samples were determined by ultra performance liquid chromatography mass spectrometry (UPLC-MS) (Waters/Micromass Xevo triple quadrupole mass spectrometer). […] In addition, glucuronidation was not considered in this study and may require further assessment using alternative test systems.
Test compound concentration vs. time data were fitted to an exponential decay function to determine the first-order rate constant for substrate depletion. In cases where clear deviation from first-order kinetics was evident, only the initial linear portion of the profile was utilised to determine the degradation rate constant (k). Each substrate depletion rate constant was then used to calculate: (1) a degradation half-life, where t 1/2 = ln(2) k ^−1; (2) an in vitro intrinsic clearance value, where CLint,in vitro = k [microsomal protein content (0.4 mg mL^−1)]^−1; (3) a predicted in vivo hepatic intrinsic clearance value, where CLint = CLint,in vitro × [liver mass (g)/body weight (kg)] × [microsomal protein (mg) / liver mass (g)]; and (4) a predicted in vivo hepatic extraction ratio, where E H = CLblood Q ^−1 = Clint [Q + Clint]^−1.
Scaling parameters assumed were: human liver mass 20 g liver / kg body weight, human microsomal protein 40 mg g^−1 liver mass[49], [50], human hepatic blood flow (Q) 20.7 mL min^−1 kg body weight^−1 [51], mouse liver mass 87.5 g liver / kg body weight, mouse microsomal protein 45 mg g^−1 liver mass[51], mouse hepatic blood flow (Q) 90 mL min^−1 kg body weight^−1 [51].

CCCCCCCCCC(=O)N[C@@H](Cc1c[nH]c2ccccc12)C(=O)N[C@H](CC(N)=O)C(=O)N[C@@H](CC(=O)O)C(=O)N[C@@H]1C(=O)NCC(=O)N[C@@H](CCCN)C(=O)N[C@@H](CC(=O)O)C(=O)N[C@H](C)C(=O)N[C@@H](CC(=O)O)C(=O)NCC(=O)N[C@H](CO)C(=O)N[C@@H]([C@H](C)CC(=O)O)C(=O)N[C@@H](CC(=O)c2ccccc2N)C(=O)O[C@@H]1C [Compound 4, Daptomycin]
MIC ([1]; 1% Survanta, read-out: MIC S. pneumoniae ATCC 700677 MDR): > 8 µg/mL
MIC ([1]; 5% Survanta, read-out: MIC S. pneumoniae ATCC 700677 MDR): > 8 µg/mL
MIC ([1]; no added Survanta, read-out: MIC S. pneumoniae ATCC 700677 MDR): 4 µg/mL (≈ 2.47 µM)
Dissipation of membrane potential (diSC3(5) fluorescence) [2]: no effect

CN[C@H]1C(=O)N[C@@H]2Cc3ccc(cc3)Oc3cc4cc(c3O[C@@H]3O[C@H](C(=O)O)[C@@H](O)[C@H](O)[C@H]3NC(=O)CCCCCCCCC(C)C)Oc3ccc(cc3Cl)[C@@H](O)[C@@H]3NC(=O)[C@H](NC(=O)[C@@H]4NC(=O)[C@@H](NC2=O)c2cc(cc(O)c2Cl)Oc2cc1ccc2O)c1ccc(O)c(c1)-c1c(O[C@H]2O[C@H](CO)[C@@H](O)[C@H](O)[C@@H]2O)cc(O)cc1[C@@H](C(=O)NCCCN(C)C)NC3=O [Compound 3, Dalbavancin]
MIC S. pneumoniae ATCC 700677 MDR ([1]; 1% Survanta): 0.06 µg/mL (≈ 0.033 µM)
MIC S. pneumoniae ATCC 700677 MDR ([1]; no added Survanta): 0.06 µg/mL (≈ 0.033 µM)
Dissipation of membrane potential (diSC3(5) fluorescence) [2]: no effect

CNC(=O)[C@H](CCCCNC(=O)[C@H]1NC(=O)[C@H]2NC(=O)[C@H](NC(=O)[C@@H]3NC(=O)[C@H](CC(N)=O)NC(=O)[C@H](NC(=O)[C@@H](CC(C)C)NC)[C@H](O)c4ccc(c(Cl)c4)Oc4cc3cc(c4O[C@@H]3O[C@H](CO)[C@@H](O)[C@H](O)[C@H]3O[C@H]3C[C@](C)(N)[C@H](O)[C@H](C)O3)Oc3ccc(cc3Cl)[C@H]2O)c2ccc(O)c(c2)-c2c(O)cc(O)cc21)NC(=O)[C@H](CCCCN)NC(=O)[C@H](CCCCN)NC(=O)[C@H](CCCCNC(=O)c1ccc(Oc2ccccc2)cc1)NC(=O)c1ccc(Oc2ccccc2)cc1 [Compound 24, POB2K-KK-K(Vancomycin)-NHMe]
MIC S. pneumoniae ATCC 700677 MDR ([1]; 5% Survanta): 0.25 µg/mL (≈ 0.106 µM)
MIC S. pneumoniae ATCC 700677 MDR ([1]; no added Survanta): ≤ 0.003 µg/mL

CN[C@H](CC(C)C)C(=O)N[C@H]1C(=O)N[C@@H](CC(N)=O)C(=O)N[C@H]2C(=O)N[C@H]3C(=O)N[C@H](C(=O)N[C@H](C(=O)O)c4cc(O)cc(O)c4-c4cc3ccc4O)[C@H](O)c3ccc(c(Cl)c3)Oc3cc2cc(c3O[C@@H]2O[C@H](CO)[C@@H](O)[C@H](O)[C@H]2O[C@H]2C[C@](C)(N)[C@H](O)[C@H](C)O2)Oc2ccc(cc2Cl)[C@H]1O [Compound 1, Vancomycin]
MIC ([1]; read-out: MIC S. pneumoniae ATCC 700677 MDR, 1% Survanta): 0.5 µg/mL (≈ 0.345 µM)
MIC ([1]; read-out: MIC S. pneumoniae ATCC 700677 MDR, 5% Survanta): 0.5 µg/mL (≈ 0.345 µM)
MIC ([1]; read-out: MIC S. pneumoniae ATCC 700677 MDR, no added Survanta): 0.5 µg/mL (≈ 0.345 µM)
Dissipation of membrane potential (diSC3(5) fluorescence) [2]: no effect

CCCCCCCCCCC(=O)N[C@@H](CCCCN)C(=O)N[C@@H](CCCCN)C(=O)N[C@@H](CCCCN)C(=O)N[C@@H](CCCCNC(=O)[C@H]1NC(=O)[C@H]2NC(=O)[C@H](NC(=O)[C@@H]3NC(=O)[C@H](CC(N)=O)NC(=O)[C@H](NC(=O)[C@@H](CC(C)C)NC)[C@H](O)c4ccc(c(Cl)c4)Oc4cc3cc(c4O[C@@H]3O[C@H](CO)[C@@H](O)[C@H](O)[C@H]3O[C@H]3C[C@](C)(N)[C@H](O)[C@H](C)O3)Oc3ccc(cc3Cl)[C@H]2O)c2ccc(O)c(c2)-c2c(O)cc(O)cc21)C(=O)O [Compound 18, nC10CO-KKK-K(Vancomycin)-OH]
half-life ([3]; human): > 4.17 h
microsomal CLint ([3]; human): < 7 µL/min/mg
Microsome-Predicted EH ([3]; human): < 0.23
half-life ([3]; mouse): 3.93 h
microsomal CLint ([3]; mouse): 7 µL/min/mg
Microsome-Predicted EH ([3]; mouse): 0.24

CCCCCCCCCCC(=O)N[C@@H](CCCCN)C(=O)N[C@@H](CCCCN)C(=O)N[C@@H](CCCCNC(=O)[C@H]1NC(=O)[C@H]2NC(=O)[C@H](NC(=O)[C@@H]3NC(=O)[C@H](CC(N)=O)NC(=O)[C@H](NC(=O)[C@@H](CC(C)C)NC)[C@H](O)c4ccc(c(Cl)c4)Oc4cc3cc(c4O[C@@H]3O[C@H](CO)[C@@H](O)[C@H](O)[C@H]3O[C@H]3C[C@](C)(N)[C@H](O)[C@H](C)O3)Oc3ccc(cc3Cl)[C@H]2O)c2ccc(O)c(c2)-c2c(O)cc(O)cc21)C(=O)O [Compound 19, nC10CO-KK-K(Vancomycin)-OH]
half-life ([3]; human): > 4.17 h
microsomal CLint ([3]; human): < 7 µL/min/mg
Microsome-Predicted EH ([3]; human): < 0.23
half-life ([3]; mouse): > 4.17 h
microsomal CLint ([3]; mouse): < 7 µL/min/mg
Microsome-Predicted EH ([3]; mouse): < 0.23
